Patent US20200129412A1, “SILICONE PAD HAVING ACTIVE INGREDIENTS FOR SKIN CARE AND AGAINST SKIN AGING” (Apricot GmbH, priority 2017, published 2020)

Test system: skin of a subject
Assay: Drug absorption study: diffusion of stained hyaluron from silicone pad into the skin
Assay type: in vivo
Conditions: 6 mg powdered hyaluron stained green in adhesive layer; 2 weeks of daily use on skin
Procedure: FIG. 3A depicts a silicone pad with an adhesive layer. The adhesive layer comprises 6 mg of powdered hyaluron (<20 T Dalton). […] For manufacturing a silicone pad, the adhesive layer was bonded to a silicone body. The silicone pad was applied daily to the skin of a subject for a period of 2 weeks.

- concentration of hyaluron in the silicone pad after use (decrease of color): decreases markedly
- distribution of hyaluron from the pad: delivered to the skin's lower layers
Substance: hyaluron
